Data on 24 compounds can be found in US20200405697A1, “Antitumor Agent” (Taiho Pharmaceutical Co., Ltd, priority 2017, published 2020).

In the assay the target is T1, human RNR (histidine tagged human M1 and human M2 proteins) (Homo sapiens, UniProt P23921).
T1 construct: made in house; host or cells: Escherichia coli
T1 sequence (P23921 1-792): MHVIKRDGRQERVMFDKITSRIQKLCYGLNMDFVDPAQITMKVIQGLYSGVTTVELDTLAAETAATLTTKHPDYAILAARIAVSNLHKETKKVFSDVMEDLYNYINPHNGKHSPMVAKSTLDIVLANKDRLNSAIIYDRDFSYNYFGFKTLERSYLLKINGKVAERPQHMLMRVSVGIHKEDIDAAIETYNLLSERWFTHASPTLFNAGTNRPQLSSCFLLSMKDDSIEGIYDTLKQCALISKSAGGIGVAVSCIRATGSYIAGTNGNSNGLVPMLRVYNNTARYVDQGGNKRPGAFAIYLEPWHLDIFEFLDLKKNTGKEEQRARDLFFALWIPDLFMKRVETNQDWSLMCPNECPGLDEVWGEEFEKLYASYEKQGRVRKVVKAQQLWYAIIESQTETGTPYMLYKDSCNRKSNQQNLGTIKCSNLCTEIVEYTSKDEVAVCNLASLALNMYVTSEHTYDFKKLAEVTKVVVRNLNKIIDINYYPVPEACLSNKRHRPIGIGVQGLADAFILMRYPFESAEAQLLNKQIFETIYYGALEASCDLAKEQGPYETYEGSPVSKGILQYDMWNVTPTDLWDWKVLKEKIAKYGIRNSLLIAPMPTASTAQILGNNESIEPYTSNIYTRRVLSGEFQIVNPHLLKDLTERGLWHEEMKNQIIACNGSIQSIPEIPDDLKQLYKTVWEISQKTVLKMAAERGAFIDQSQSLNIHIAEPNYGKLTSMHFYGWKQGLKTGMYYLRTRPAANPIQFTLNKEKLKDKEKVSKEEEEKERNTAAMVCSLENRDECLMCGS
In words: Human RNR inhibition effect (dCDP formation from CDP). The settings on record: 10 μM CDP, 37° C. for 30 minutes, read-out: RNR inhibitory activity IC50. The class given is biochemical. The procedure, abridged:
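His-tagged human M1 (isoform 1) and N-terminal 59-aa-truncated M2 (isoform 2), E. coli-expressed, Ni-purified, preincubated 20 min with compound (1% DMSO). Reaction with 10 μM CDP, 2 mM ATP, 0.24 mM NADPH, 6 mM DTT, 4 mM Mg acetate, 100 mM KCl, 50 mM HEPES pH 7.2, 30 min at 37° C. dCDP formed quantified by reverse-phase HPLC after heat stop.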

Take `Cc1ccc(F)c([C@@H](C)[C@H](NS(=O)(=O)c2ccc(Cl)c(C(=O)N3CCC(N)C3)n2)c2n[nH]c(=O)o2)c1C` (stereo partly drawn) [Example 283, 6-(3-aminopyrrolidine-1-carbonyl)-5-chloro-N-((1S,2R)-2-(6-fluoro-2,3-dimethylphenyl)-1-(5-oxo-4,5-dihydro-1,3,4-oxadiazol-2-yl)propyl)pyridine-2-sulfonamide]: the IC50 (as a rule, the concentration needed to halve the response being measured) is 0.15 µM. For `Cc1ccc(F)c([C@@H](C)[C@H](NS(=O)(=O)c2ncc(Br)cc2C(N)=O)c2n[nH]c(=O)o2)c1C` [Example 250, 5-bromo-2-(N-((1S,2R)-2-(6-fluoro-2,3-dimethylphenyl)-1-(5-oxo-4,5-dihydro-1,3,4-oxadiazol-2-yl)propyl)sulfamoyl)nicotinamide], the IC50 turned out to be 0.02 µM. Turning to `Cc1ccc(F)c([C@@H](C)[C@H](NS(=O)(=O)c2ccc3c(c2)CC(=O)N3)c2n[nH]c(=O)o2)c1C` [Example 162, N-((1S,2R)-2-(6-fluoro-2,3-dimethylphenyl)-1-(5-oxo-4,5-dihydro-1,3,4-oxadiazol-2-yl)propyl)-2-oxoindoline-5-sulfonamide], the IC50 is 0.74 µM. With `Cc1ccc(F)c([C@@H](C)[C@H](NS(=O)(=O)c2ccc(Br)cc2C#N)c2n[nH]c(=O)o2)c1C` [Example 92, 4-bromo-2-cyano-N-((1S,2R)-2-(6-fluoro-2,3-dimethylphenyl)-1-(5-oxo-4,5-dihydro-1,3,4-oxadiazol-2-yl)propyl)benzenesulfonamide], the IC50 turned out to be 0.2 µM.

As to `COc1c(S(=O)(=O)N[C@H](c2n[nH]c(=O)o2)[C@H](C)c2c(F)ccc(C)c2C)ccc(Cl)c1C(C)O` (single isomer, unassigned) [Example 208B], the IC50 came to 0.06 µM. Take `COc1cc(Cl)ccc1S(=O)(=O)N[C@H](c1n[nH]c(=O)o1)[C@H](C)c1c(F)ccc(-c2cn[nH]c2)c1C` [Example 303, 4-chloro-N-((1S,2R)-2-(6-fluoro-2-methyl-3-(1H-pyrazol-4-yl)phenyl)-1-(5-oxo-4,5-dihydro-1,3,4-oxadiazol-2-yl)propyl)-2-methoxybenzensulfonamide]: the IC50 turned out to be 0.16 µM. Regarding `Cc1c(Cl)ccc(F)c1[C@@H](C)[C@H](NS(=O)(=O)c1ncc(Br)cc1C(N)=O)c1n[nH]c(=O)o1` [Example 254, 5-bromo-2-(N-((1S,2R)-2-(3-chloro-6-fluoro-2-methylphenyl)-1-(5-oxo-4,5-dihydro-1,3,4-oxadiazol-2-yl)propyl)sulfamoyl)nicotinamide], the IC50 was 0.07 µM.

For the compound `COc1cc(S(=O)(=O)N[C@H](c2n[nH]c(=O)o2)[C@H](C)c2c(F)ccc(C)c2C)c(C(N)=O)cc1Cl` [Example 259, 5-chloro-2-(N-((1S,2R)-2-(6-fluoro-2,3-dimethylphenyl)-1-(5-oxo-4,5-dihydro-1,3,4-oxadiazol-2-yl)propyl)sulfamoyl)-4-methoxybenzamide], the IC50 was found to be 0.1 µM. The value for `Cc1c(Br)ccc(F)c1[C@@H](C)[C@H](NS(=O)(=O)c1ccc(C(F)(F)F)cc1C(N)=O)c1n[nH]c(=O)o1` [Example 42, 2-(N-((1S,2R)-2-(3-bromo-6-fluoro-2-methylphenyl)-1-(5-oxo-4,5-dihydro-1,3,4-oxadiazol-2-yl)propyl)sulfamoyl)-5-(trifluoromethyl)benzamide] was 0.2 µM. As for `CC(=O)OC1(C)CCOc2c(S(=O)(=O)N[C@H](c3n[nH]c(=O)o3)[C@H](C)c3c(F)ccc(Cl)c3C)ccc(Cl)c21` (stereo partly drawn) [Example 100, 5-chloro-8-(N-((1S,2R)-2-(3-chloro-6-fluoro-2-methylphenyl)-1-(5-oxo-4,5-dihydro-1,3,4-oxadiazol-2-yl)propyl)sulfamoyl)-4-methylchroman-4-yl acetate], the figure is 0.3 µM; as for `CC(=O)Nc1cc(Cl)ccc1S(=O)(=O)N[C@H](c1n[nH]c(=O)o1)[C@H](C)c1c(F)ccc(C)c1C` [Example 274, N-(5-chloro-2-(N-((1S,2R)-2-(6-fluoro-2,3-dimethylphenyl)-1-(5-oxo-4,5-dihydro-1,3,4-oxadiazol-2-yl)propyl)sulfamoyl)phenyl)acetamide], 0.44 µM; as for `[2H]C([2H])([2H])C1(OC(C)=O)CCOc2c(S(=O)(=O)N[C@H](c3n[nH]c(=O)o3)[C@H](C)c3c(F)ccc(C)c3C)ccc(Cl)c21` (stereo partly drawn) [Example 129, 5-Chloro-8-(N-((1S,2R)-2-(6-fluoro-2,3-dimethylphenyl)-1-(5-oxo-4,5-dihydro-1,3,4-oxadiazol-2-yl)propyl)sulfamoyl)-4-methyl-d3-chroman-4-yl Acetate], 0.1 µM. Regarding `C[C@H](c1cccc2c1CCCC2)[C@H](NS(=O)(=O)c1ccc(N)cc1)c1n[nH]c(=O)o1` [Example 266, 4-amino-N-((1S,2R)-1-(5-oxo-4,5-dihydro-1,3,4-oxadiazol-2-yl)-2-(5,6,7,8-tetrahydronaphthalen-1-yl)propyl)benzenesulfonamide], the IC50 came out at 0.85 µM. On to `Cc1c(C(F)(F)F)ccc(F)c1[C@@H](C)[C@H](NS(=O)(=O)c1ccc(Cl)cc1C(N)=O)c1n[nH]c(=O)o1` [Example 27, 5-chloro-2-(N-((1S,2R)-2-(6-fluoro-2-methyl-3-(trifluoromethyl)phenyl)-1-(5-oxo-4,5-dihydro-1,3,4-oxadiazol-2-yl)propyl)sulfamoyl)benzamide], for which the IC50 was 0.55 µM. Consider `C[C@H](c1cc(F)cc2ccccc12)[C@H](NS(=O)(=O)c1ccc(Cl)cc1C(N)=O)c1n[nH]c(=O)o1` [Example 9, 5-chloro-2-(N-((1S,2R)-2-(3-fluoronaphthalen-1-yl)-1-(5-oxo-4,5-dihydro-1,3,4-oxadiazol-2-yl)propyl)sulfamoyl)benzamide], for which the IC50 turned out to be 0.6 µM.

Take `CC(=O)c1cc(Cl)ccc1S(=O)(=O)N[C@H](c1n[nH]c(=O)o1)[C@H](C)c1c(F)ccc(C)c1C` [Example 147, 2-acetyl-4-chloro-N-((1S,2R)-2-(6-fluoro-2,3-dimethylphenyl)-1-(5-oxo-4,5-dihydro-1,3,4-oxadiazol-2-yl)propyl)benzenesulfonamide]: the IC50 stood at 0.27 µM. As to `Cc1ccc(F)c([C@@H](C)[C@H](NS(=O)(=O)c2ccc(C(F)(F)F)c3c2OCCC3O)c2n[nH]c(=O)o2)c1C` (single isomer, unassigned) [Example 244B], the IC50 turned out to be 0.22 µM. With `COc1cc(Cl)ccc1S(=O)(=O)N[C@H](c1n[nH]c(=O)o1)[C@H](C)c1c(F)ccc(-c2cncnc2)c1C` [Example 318, 4-chloro-N-((1S,2R)-2-(6-fluoro-2-methyl-3-(pyrimidin-5-yl)phenyl)-1-(5-oxo-4,5-dihydro-1,3,4-oxadiazol-2-yl)propyl)-2-methoxybenzenesulfonamide], the IC50 was determined as 0.54 µM. `COc1cc(N)ccc1S(=O)(=O)N[C@H](c1n[nH]c(=O)o1)[C@H](C)c1c(F)ccc2ccccc12` [Example 265, 4-amino-N-((1S,2R)-2-(2-fluoronaphthalen-1-yl)-1-(5-oxo-4,5-dihydro-1,3,4-oxadiazol-2-yl)propyl)-2-methoxybenzenesulfonamide]: the IC50 came out at 0.26 µM.

Consider `Cc1ccc(F)c([C@@H](C)[C@H](NS(=O)(=O)c2ccccc2C(=O)NO)c2n[nH]c(=O)o2)c1C` [Example 285, 2-(N-((1S,2R)-2-(6-fluoro-2,3-dimethylphenyl)-1-(5-oxo-4,5-dihydro-1,3,4-oxadiazol-2-yl)propyl)sulfamoyl)-N-hydroxybenzamide], for which the IC50 stood at 0.31 µM.

Take `C[C@H](c1cccc2ccccc12)[C@H](NS(=O)(=O)c1ccc(Cl)cc1Cl)c1n[nH]c(=O)o1` [Example 46, 2,4-dichloro-N-((1S,2R)-2-(naphthalen-1-yl)-1-(5-oxo-4,5-dihydro-1,3,4-oxadiazol-2-yl)propyl)benzenesulfonamide]: the concentration for half-maximal inhibition (IC50) stood at 0.84 µM. As for `Cc1c(Cl)ccc(F)c1[C@@H](C)[C@H](NS(=O)(=O)c1ccc(Cl)c2c1OCCN2C)c1n[nH]c(=O)o1` [Example 289, 5-chloro-N-((1S,2R)-2-(3-chloro-6-fluoro-2-methylphenyl)-1-(5-oxo-4,5-dihydro-1,3,4-oxadiazol-2-yl)propyl)-4-methyl-3,4-dihydro-2H-benzo[b][1,4]oxazine-8-sulfonamide], the figure is 0.13 µM; as for `COc1c(S(=O)(=O)N[C@H](c2n[nH]c(=O)o2)[C@H](C)c2c(F)ccc(C)c2C)ccc(Cl)c1C(C)O` (single isomer, unassigned) [Example 208A], 0.1 µM; as for `COc1cc(C(N)=O)ccc1S(=O)(=O)N[C@H](c1n[nH]c(=O)o1)[C@H](C)c1c(F)ccc(C)c1C` [Example 346, 4-(N-((1S,2R)-(6-fluoro-2,3-dimethylphenyl)-1-(5-oxo-4,5-dihydro-1,3,4-oxadiazol-2 yl)propyl)sulfamoyl)-3-methoxybenzamide], 0.42 µM.
